Measured values published in patent US20250195502A1, “APPLICATION OF TETRACYCLIC COMPOUND IN TREATMENT OF TUMORS” (SHANGHAI SHIJIANG BIOTECHNOLOGY CO., LTD, priority 2022, published 2025).
Like-named read-outs stand apart in the source and are kept apart here.

Tests used:
Assay type in all cases: cell-based
[1] = system: NB-1 (brain neuroblastoma cell); test: Cell viability assay (Promega CellTiter-Glo), inhibitory effect on NB-1; conditions: Homo sapiens, 72 h, 3 days of culture, read-out: inhibitory effect on brain cell line NB-1 (IC50)
Procedure: (§1) The inhibitory effect of the compounds prepared in the Examples of the present invention on various brain tumor cell lines was detected using cell viability assay reagent.
(§2) Cell viability was detected using the Promega CellTiter-Glo kit, cell viability was determined by directly measuring intracellular ATP content. In the experiment, the IC50 value of the compounds prepared in the Examples of the present invention on various brain tumor cell lines was detected.
(§3) Each tumor cell was cultured in relevant medium. After cell passage, the gradient diluted compounds prepared in the Examples of the present invention was added. After 3 days of culture, the relevant IC50 (50% inhibiting concentration) was measured. The name, source and culture conditions of each tumor cell line were as follows:
Cell line NB-1 (ATCC, No. HTB-131) was cultured in 10% fetal bovine serum-containing Leibovitz's L-15 medium (+P/S).

[2] = system: MDA-MB-453 (breast cancer cell); test: Cell viability assay (Promega CellTiter-Glo), inhibitory effect on MDA-MB-453; conditions: Homo sapiens, 72 h, 3 days of culture
Procedure: (§4) The inhibitory effect of the compounds prepared in the Examples of the present invention on various tumor cell lines was detected using cell viability assay reagent.
(§5) Cell viability was detected using the Promega CellTiter-Glo kit, cell viability was determined by directly measuring intracellular ATP content. In the experiment, the ICso value of the compounds prepared in the Examples of the present invention on various tumor cell lines was detected.
as §3
Cell line MDA-MB-453 (ATCC, No. HTB-131) was cultured in 10% fetal bovine serum-containing Leibovitz's L-15 medium (+P/S).

[3] = system: sh-DNMT1 NCI-H82 cell (DNMT1 knocked down NCI-H82); test: Cell viability assay (Promega CellTiter-Glo), inhibitory effect on sh-DNMT1 NCI-H82 cell; conditions: Homo sapiens, NCI-H82 with DNMT1 knocked down by shRNA
Procedure: (§6) The role of expression level of NNMT gene and DNMT1 in the sensitivity of NCI-H82 cell to the compounds prepared in the Examples of the present invention was determined
(§7) The expression of NNMT protein in NCI-H82 cell was overexpressed by inserting the NNMT gene into NCI-H82 cell using a viral vector, and the NNMT protein-overexpressing NCI-H82 cell (ov-NNMT NCI-H82 cell) was obtained. The expression of DNMT1 in NCI-H82 cell was knocked down transfecting (the by shRNA nucleotide sequence of shRNA was […] TTTTTG (SEQ ID No: 2)) using a viral vector, and the NCI-H82 cell with low expression of DNMT1 protein (sh-DNMT1 NCI-H82 cell) was obtained. The control NCI-H82 cell (Con-NCI-H82 cell) was obtained by transfecting NCI-H82 cell with empty virus vector without carrying NNMT gene and shRNA. The expressing content of NNMT protein and DNMT1 protein in the Con-NCI-H82 cell, the expressing content of NNMT protein in the ov-NNMT NCI-H82 cell, and the expressing content of DNMT1 protein in the sh-DNMT1 NCI-H82 cell were detected using Western Blot assay (as shown in FIG. 15 and FIG. 16), it could be seen from FIG. 15 and FIG. 16 that the NNMT protein was overexpressed in the ov-NNMT NCI-H82 cell and the expression of DNMT1 protein was knocked down (i.e, low expression) in the sh-DNMT1 NCI-H82 cell compared with the expression level of NNMT protein and DNMT protein in the Con-NCI-H82 cell.

[4] = system: ov-NNMT NCI-H82 cell (NNMT protein-overexpressing NCI-H82); test: Cell viability assay (Promega CellTiter-Glo), inhibitory effect on ov-NNMT NCI-H82 cell; conditions: Homo sapiens
Procedure: as §6, §7

[5] = system: CFPAC-1 (human pancreatic cancer cell); test: Cell viability assay (Promega CellTiter-Glo), inhibitory effect on CFPAC-1; conditions: 72 h, 3 days of culture
Procedure: as §4, §5, §3
Cell line CFPAC-1 (ATCC, No. CRL-1918) was cultured in 10% fetal bovine serum-containing IMDM medium (+P/S).

[6] = system: SF126 (human glioblastoma multiforme cell); test: Cell viability assay (Promega CellTiter-Glo), inhibitory effect on SF126
Procedure: as §4, §5, §3
Cell line SF126 (JCRB, No. IFO50286) was cultured in 10% fetal bovine serum-containing EMEM medium (+P/S).
as §1, §2

[7] = system: Kelly (brain neuroblastoma cell); test: Cell viability assay (Promega CellTiter-Glo), inhibitory effect on Kelly; conditions: Homo sapiens, 72 h, 3 days of culture, read-out: inhibitory effect on brain cell line Kelly (IC50)
Procedure: as §1, §2, §3
Cell line Kelly (ECACC, No. 92110411) was cultured in 10% fetal bovine serum and 2 mM glutamine-containing RPMI1640 medium.

[8] = system: SW48 (human colon adenocarcinoma cell); test: Cell viability assay (Promega CellTiter-Glo), inhibitory effect on SW48; conditions: 72 h, 3 days of culture
Procedure: as §4, §5, §3
Cell line SW48 (ATCC, No. CCL-231) was cultured in 10% fetal bovine serum-containing Leibovitz's L-15 medium (+P/S).

[9] = system: Con-NCI-H82 cell (NCI-H82 transfected with empty virus vector); test: Cell viability assay (Promega CellTiter-Glo), inhibitory effect on Con-NCI-H82 cell; conditions: Homo sapiens; NCI-H82 transfected with empty virus vector (control); CellTiter-Glo; read-out: inhibitory effect on Con-NCI-H82 (IC50)
Procedure: as §6, §7

[10] = system: NCI-H82 (human small cell lung cancer cell); test: Cell viability assay (Promega CellTiter-Glo), inhibitory effect on NCI-H82; conditions: 72 h, 3 days of culture
Procedure: as §4, §5, §3
Cell line NCI-H82 (ATCC, No. HTB-175) was cultured in 10% fetal bovine serum-containing RPMI1640 medium (+P/S).

[11] = system: 786-O (clear cell renal cell adenocarcinoma cell); test: Cell viability assay (Promega CellTiter-Glo), inhibitory effect on 786-O; conditions: Homo sapiens, 786-0, 72 h, 3 days of culture
Procedure: as §4, §5, §3
Cell line 786-0 (ATCC, No. CRL-1932) was cultured in 10% fetal bovine serum-containing RPMI1640 medium (+P/S).

[12] = system: GB-1 (human brain glioblastoma cell); test: Cell viability assay (Promega CellTiter-Glo), inhibitory effect on GB-1; conditions: 72 h, 3 days of culture
Procedure: as §4, §5, §3
Cell line GB-1 (JCRB, No. IFO50489) was cultured in 10% fetal bovine serum-containing DMEM medium (+P/S).
as §1, §2

[13] = system: D341 Med (cerebellar medulloblastoma cell); test: Cell viability assay (Promega CellTiter-Glo), inhibitory effect on D341 Med; conditions: Homo sapiens, 72 h, 3 days of culture, read-out: inhibitory effect on brain cell line D341 Med (IC50)
Procedure: as §1, §2, §3
Cell line D341 Med (ATCC, No. HTB-187) was cultured in 20% fetal bovine serum-containing EMEM medium (+P/S).

[14] = system: G-401 (human renal carcinoma Wilms cell); test: Cell viability assay (Promega CellTiter-Glo), inhibitory effect on G-401; conditions: 72 h, 3 days of culture
Procedure: as §4, §5, §3
Cell line G-401 (ATCC, No. CRL-1441) was cultured in 10% fetal bovine serum-containing McCoy's 5a medium (+P/S).

[15] = 72 h, SF-126, 3 days of culture, Table 3, read-out: inhibitory effect on SF-126 (IC50)
[16] = SF-126, 72 h, SF126, 3 days of culture, Table 4, read-out: inhibitory effect on brain cell line SF126 (IC50)
[17] = Table 3, read-out: inhibitory effect on GB-1 (IC50)
[18] = Table 4, read-out: inhibitory effect on brain cell line GB-1 (IC50)

| SMILES | IC50 [1] | IC50 [2] | IC50 [3] | IC50 [4] | IC50 [5] | IC50 [6, 15] | IC50 [6, 16] | IC50 [7] | IC50 [8] | IC50 [9] | IC50 [10] | IC50 [11] | IC50 [12, 17] | IC50 [12, 18] | IC50 [13] | IC50 [14] |
| --- | --- | --- | --- | --- | --- | --- | --- | --- | --- | --- | --- | --- | --- | --- | --- | --- |
| CCCCc1c2c(OC)c(OC)ccc2cc2[n+]1CCc1cc3c(cc1-2)OCO3 [compound AB31707] | 290 nM | 620 nM | 3410 nM | 2960 nM | 13000 nM | 10200 nM | 10200 nM | 1240 nM | 1420 nM | 1170 nM | 1170 nM | 7630 nM | 8270 nM | 8270 nM | 1370 nM | 1120 nM |
| CCCCc1c2c(OC)c(OC)cc(Br)c2cc2[n+]1CCc1cc3c(cc1-2)OCO3 [compound AB31711] | 240 nM | 500 nM | 1900 nM | 1430 nM | 9470 nM | 5210 nM | 5210 nM | 880 nM | 820 nM | 650 nM | 650 nM | 3970 nM | 5320 nM | 5320 nM | 920 nM | 720 nM |
| COc1ccc2cc3[n+](cc2c1OCCCCOc1ccccc1)CCc1cc2c(cc1-3)OCO2 [compound AB31718] | 20 nM | 90 nM | 1360 nM | 680 nM | 5290 nM | 4250 nM | 4250 nM | 660 nM | 250 nM | 290 nM | 290 nM | 2690 nM | 3410 nM | 3410 nM | 180 nM | 370 nM |
| COc1ccc2cc3[n+](cc2c1OCCCBr)CCc1cc2c(cc1-3)OCO2 [compound AB31721] | 140 nM | 430 nM | 1310 nM | 920 nM | 7170 nM | 10800 nM | 10800 nM | 1260 nM | 800 nM | 400 nM | 400 nM | 9160 nM | 10000 nM | 10000 nM | 360 nM | 1380 nM |
| CCC(CC)C(=O)Oc1c(OC)ccc2cc3[n+](cc12)CCc1cc2c(cc1-3)OCO2 [compound AB31722] | 980 nM | 1410 nM | 8930 nM | 5980 nM | 24400 nM | 20600 nM | 20600 nM | 2520 nM | 2060 nM | 2810 nM | 2810 nM | 26200 nM | 40400 nM | 40400 nM | 2890 nM | 3940 nM |
| COc1ccc2cc3[n+](cc2c1OCCCCCCCl)CCc1cc2c(cc1-3)OCO2 [compound AB31731] | 70 nM | 220 nM | 1660 nM | 1320 nM | 8980 nM | 6190 nM | 6190 nM | 860 nM | 620 nM | 520 nM | 520 nM | 3760 nM | 6640 nM | 6640 nM | 340 nM | 770 nM |
| COc1ccc2cc3[n+](cc2c1OC/C=C(\C)CCC=C(C)C)CCc1cc2c(cc1-3)OCO2 [compound AB31737] | 20 nM | 90 nM | 940 nM | 730 nM | 4600 nM | 4140 nM | 4140 nM | 360 nM | 200 nM | 240 nM | 240 nM | 2340 nM | 2660 nM | 2660 nM | 400 nM | 170 nM |
| CCCCCCCCNc1c(OC)ccc2cc3[n+](cc12)CCc1cc2c(cc1-3)OCO2 [compound AB31739] | 90 nM | 370 nM | 1550 nM | 950 nM | 6070 nM | 3570 nM | 3570 nM | 640 nM | 430 nM | 450 nM | 450 nM | 3050 nM | 3970 nM | 3970 nM | 860 nM | 530 nM |
| COc1ccc2cc3[n+](cc2c1NCCc1ccccc1)CCc1cc2c(cc1-3)OCO2 [compound AB31740] | 80 nM | 200 nM | 1570 nM | 1550 nM | 12400 nM | 7770 nM | 7770 nM | 840 nM | 340 nM | 490 nM | 490 nM | 5130 nM | 7740 nM | 7740 nM | 530 nM | 930 nM |
| COc1ccc2c(Cc3ccc(C(C)(C)C)cc3)c3[n+](cc2c1OC)CCc1cc2c(cc1-3)OCO2 [compound AB31748] | 210 nM | 320 nM | 910 nM | 780 nM | 4950 nM | 3530 nM | 3530 nM | 460 nM | 420 nM | 320 nM | 320 nM | 3930 nM | 3210 nM | 3210 nM | 670 nM | 320 nM |
| CCCCc1c2[n+](cc3c(OC)c(OC)ccc13)CCc1cc3c(cc1-2)OCO3 [compound AB31757] | 150 nM | 680 nM | 3820 nM | 3320 nM | 29900 nM | 16000 nM | 16000 nM | 1500 nM | 650 nM | 880 nM | 880 nM | 15200 nM | 17500 nM | 17500 nM | 2820 nM | 740 nM |
